In the supplement of paper PMC10307832:

How the values were obtained:
Assay in all cases: relative viability (nuclei count vs DMSO), 5 days (fraction); higher = more cells survive
[1] = system: HCC-366
How it was run: (§1)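 Lung cancer cell lines, seeded in 1536-well plates, were treated the following day by pin tool with a single drug or with five library-drug doses (not always all listed) in √10 steps on top of a fixed anchor-drug dose. Cells were fixed and nuclei stained in one step after 5 days, and nuclei were counted. Relative viability is the nuclei count for treated wells divided by that for vehicle wells, reported as medians of duplicate plates.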

[2] = system: COR-L 105
How it was run: as §1

[3] = system: EMC-BAC-2
How it was run: as §1

[4] = system: NCI-H1395
How it was run: as §1

[5] = system: NCI-H1437
How it was run: as §1

[6] = system: CAL-12T
How it was run: as §1

[7] = system: NCI-H460
How it was run: as §1

[8] = system: NCI-H522
How it was run: as §1

[9] = system: NCI-H727
How it was run: as §1

[10] = system: NCI-H1755
How it was run: as §1

[11] = system: LCLC-103H
How it was run: as §1

[12] = system: NCI-H1915
How it was run: as §1

[13] = system: NCI-H2009
How it was run: as §1

[14] = system: NCI-H23
How it was run: as §1

[15] = system: NCI-H2228
How it was run: as §1

[16] = system: HOP-62
How it was run: as §1

[17] = system: HCC-827
How it was run: as §1

[18] = system: SW 1573
How it was run: as §1

[19] = system: SK-LU-1
How it was run: as §1

[20] = system: A-427
How it was run: as §1

[21] = system: HARA
How it was run: as §1

[22] = system: NCI-H1792
How it was run: as §1

Q: Which results are given for `O=c1cc(-c2cccc3c2Sc2ccccc2S3)oc(N2CCOCC2)c1` + Cc1nc(Nc2ncc(C(=O)Nc3c(C)cccc3Cl)s2)cc(N2CCN(CCO)CC2)n1 [Dasatinib] (partner 0.075 µM)?
A: relative viability ([1]; first compound 0.08 µM): 0.633; relative viability ([1]; first compound 0.253 µM): 0.718; relative viability ([1]; first compound 0.8 µM): 0.547; relative viability ([1]; first compound 2.53 µM): 0.666; relative viability ([1]; first compound 8 µM): 0.767; relative viability ([2]; first compound 0.08 µM): 0.311; relative viability ([2]; first compound 0.253 µM): 0.311; relative viability ([2]; first compound 0.8 µM): 0.326; relative viability ([2]; first compound 2.53 µM): 0.356; relative viability ([2]; first compound 8 µM): 0.31; relative viability ([3]; first compound 0.08 µM): 0.252; relative viability ([3]; first compound 0.253 µM): 0.368; relative viability ([3]; first compound 0.8 µM): 0.306; relative viability ([3]; first compound 2.53 µM): 0.303; relative viability ([3]; first compound 8 µM): 0.399; relative viability ([4]; first compound 0.08 µM): 0.425; relative viability ([4]; first compound 0.253 µM): 0.366; relative viability ([4]; first compound 0.8 µM): 0.436; relative viability ([4]; first compound 2.53 µM): 0.338; relative viability ([4]; first compound 8 µM): 0.386; relative viability ([5]; first compound 0.08 µM): 0.435; relative viability ([5]; first compound 0.253 µM): 0.488; relative viability ([5]; first compound 0.8 µM): 0.401; relative viability ([5]; first compound 2.53 µM): 0.339; relative viability ([5]; first compound 8 µM): 0.423; relative viability ([6]; first compound 0.08 µM): 0.339; relative viability ([6]; first compound 0.253 µM): 0.415; relative viability ([6]; first compound 0.8 µM): 0.298; relative viability ([6]; first compound 2.53 µM): 0.34; relative viability ([6]; first compound 8 µM): 0.27; relative viability ([7]; first compound 0.08 µM): 0.454; relative viability ([7]; first compound 0.253 µM): 0.619; relative viability ([7]; first compound 0.8 µM): 0.436; relative viability ([7]; first compound 2.53 µM): 0.408; relative viability ([7]; first compound 8 µM): 0.55; relative viability ([8]; first compound 0.08 µM): 0.895; relative viability ([8]; first compound 0.253 µM): 0.983; relative viability ([8]; first compound 0.8 µM): 0.872; relative viability ([8]; first compound 2.53 µM): 0.71; relative viability ([8]; first compound 8 µM): 0.781; relative viability ([9]; first compound 0.08 µM): 0.332; relative viability ([9]; first compound 0.253 µM): 0.438; relative viability ([9]; first compound 0.8 µM): 0.449; relative viability ([9]; first compound 2.53 µM): 0.382; relative viability ([9]; first compound 8 µM): 0.409; relative viability ([10]; first compound 0.08 µM): 0.434; relative viability ([10]; first compound 0.253 µM): 0.44; relative viability ([10]; first compound 0.8 µM): 0.416; relative viability ([10]; first compound 2.53 µM): 0.324; relative viability ([10]; first compound 8 µM): 0.381; relative viability ([11]; first compound 0.08 µM): 0.416; relative viability ([11]; first compound 0.253 µM): 0.503; relative viability ([11]; first compound 0.8 µM): 0.528; relative viability ([11]; first compound 2.53 µM): 0.439; relative viability ([11]; first compound 8 µM): 0.551; relative viability ([12]; first compound 0.08 µM): 0.296; relative viability ([12]; first compound 0.253 µM): 0.351; relative viability ([12]; first compound 0.8 µM): 0.309; relative viability ([12]; first compound 2.53 µM): 0.306; relative viability ([12]; first compound 8 µM): 0.337; relative viability ([13]; first compound 0.08 µM): 0.298; relative viability ([13]; first compound 0.253 µM): 0.301; relative viability ([13]; first compound 0.8 µM): 0.29; relative viability ([13]; first compound 2.53 µM): 0.235; relative viability ([13]; first compound 8 µM): 0.254; relative viability ([14]; first compound 0.08 µM): 0.721; relative viability ([14]; first compound 0.253 µM): 0.716; relative viability ([14]; first compound 0.8 µM): 0.783; relative viability ([14]; first compound 2.53 µM): 0.702; relative viability ([14]; first compound 8 µM): 0.86; relative viability ([15]; first compound 0.08 µM): 0.547; relative viability ([15]; first compound 0.253 µM): 0.6; relative viability ([15]; first compound 0.8 µM): 0.625; relative viability ([15]; first compound 2.53 µM): 0.402; relative viability ([15]; first compound 8 µM): 0.51; relative viability ([16]; first compound 0.08 µM): 0.615; relative viability ([16]; first compound 0.253 µM): 0.835; relative viability ([16]; first compound 0.8 µM): 0.679; relative viability ([16]; first compound 2.53 µM): 0.562; relative viability ([16]; first compound 8 µM): 0.543; relative viability ([17]; first compound 0.08 µM): 0.285; relative viability ([17]; first compound 0.253 µM): 0.297; relative viability ([17]; first compound 0.8 µM): 0.37; relative viability ([17]; first compound 2.53 µM): 0.276; relative viability ([17]; first compound 8 µM): 0.348; relative viability ([18]; first compound 0.08 µM): 0.417; relative viability ([18]; first compound 0.253 µM): 0.66; relative viability ([18]; first compound 0.8 µM): 0.706; relative viability ([18]; first compound 2.53 µM): 0.436; relative viability ([18]; first compound 8 µM): 0.461; relative viability ([19]; first compound 0.08 µM): 0.156; relative viability ([19]; first compound 0.253 µM): 0.17; relative viability ([19]; first compound 0.8 µM): 0.205; relative viability ([19]; first compound 2.53 µM): 0.18; relative viability ([19]; first compound 8 µM): 0.182; relative viability ([20]; first compound 0.08 µM): 0.695; relative viability ([20]; first compound 0.253 µM): 0.871; relative viability ([20]; first compound 0.8 µM): 0.744; relative viability ([20]; first compound 8 µM): 0.884; relative viability ([21]; first compound 0.08 µM): 0.294; relative viability ([21]; first compound 0.253 µM): 0.31; relative viability ([21]; first compound 0.8 µM): 0.234; relative viability ([21]; first compound 2.53 µM): 0.241; relative viability ([21]; first compound 8 µM): 0.377; relative viability ([22]; first compound 0.08 µM): 0.791; relative viability ([22]; first compound 0.253 µM): 1.01; relative viability ([22]; first compound 0.8 µM): 0.617; relative viability ([22]; first compound 2.53 µM): 0.728; relative viability ([22]; first compound 8 µM): 1.04
